# Assay results from article PMC13099141, “Antibiotic potentiation and inhibition of cross-resistance in pathogens associated with cystic fibrosis” (eLife, 2026).
# Legend:
# Experiment in all cases: nitrocefin hydrolysis, absorbance at […] nm, sonicated lysate
# Format in all cases: biochemical
# Details in all cases: 0.4 mM nitrocefin, 100 mM sodium phosphate pH 7.0, 25 °C; dsbA+ E. coli
# [1] = target: T1, SMB-1 (Serratia marcescens, UniProt G5ELM3)
# T1 construct: full-length class B3 metallo-beta-lactamase, synthetic gene in pDM1, E. coli MC1000 lysate
# T1 sequence (G5ELM3 entry or part of it): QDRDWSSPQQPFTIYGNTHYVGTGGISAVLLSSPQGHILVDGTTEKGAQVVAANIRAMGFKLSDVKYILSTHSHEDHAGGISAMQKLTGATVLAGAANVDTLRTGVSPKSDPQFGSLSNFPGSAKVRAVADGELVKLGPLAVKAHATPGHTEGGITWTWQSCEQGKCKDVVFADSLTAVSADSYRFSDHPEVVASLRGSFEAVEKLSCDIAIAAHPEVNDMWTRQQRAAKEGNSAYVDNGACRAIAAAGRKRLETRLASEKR
# [2] = target: T2, AIM-1 (Pseudomonas aeruginosa, UniProt B5DCA0)
# T2 construct: gene blaAIM-1; full-length class B3 metallo-beta-lactamase from pDM1-blaAIM-1 in E. coli MC1000, lysate; gene from clinical isolate
# T2 sequence (B5DCA0 entry or part of it): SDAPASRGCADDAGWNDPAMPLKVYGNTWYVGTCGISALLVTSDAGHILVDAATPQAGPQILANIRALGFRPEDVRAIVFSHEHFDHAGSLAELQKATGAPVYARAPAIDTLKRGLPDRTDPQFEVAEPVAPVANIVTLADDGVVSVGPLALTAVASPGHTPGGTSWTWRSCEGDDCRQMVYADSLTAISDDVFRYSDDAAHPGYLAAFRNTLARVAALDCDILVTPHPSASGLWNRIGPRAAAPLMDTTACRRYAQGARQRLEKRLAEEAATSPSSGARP
# [3] = target: T3, OXA-50 (Pseudomonas aeruginosa, UniProt G3XCV9)
# T3 construct: gene PA5514; full-length class D beta-lactamase from pDM1-blaOXA-50 in E. coli MC1000, lysate; gene from clinical isolate
# T3 sequence (G3XCV9 entry or part of it): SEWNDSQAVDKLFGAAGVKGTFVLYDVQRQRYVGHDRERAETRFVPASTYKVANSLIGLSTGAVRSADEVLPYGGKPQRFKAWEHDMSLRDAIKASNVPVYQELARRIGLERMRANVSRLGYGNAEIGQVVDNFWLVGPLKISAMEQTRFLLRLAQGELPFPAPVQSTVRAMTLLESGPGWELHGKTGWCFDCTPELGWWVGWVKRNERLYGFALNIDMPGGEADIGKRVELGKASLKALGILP
# [4] = target: T4, CARB-2 (Pseudomonas aeruginosa, UniProt Q03170)
# T4 construct: gene pse1; full-length class A carbenicillinase, synthetic gene in pDM1, E. coli MC1000 lysate
# T4 sequence (Q03170 18-288): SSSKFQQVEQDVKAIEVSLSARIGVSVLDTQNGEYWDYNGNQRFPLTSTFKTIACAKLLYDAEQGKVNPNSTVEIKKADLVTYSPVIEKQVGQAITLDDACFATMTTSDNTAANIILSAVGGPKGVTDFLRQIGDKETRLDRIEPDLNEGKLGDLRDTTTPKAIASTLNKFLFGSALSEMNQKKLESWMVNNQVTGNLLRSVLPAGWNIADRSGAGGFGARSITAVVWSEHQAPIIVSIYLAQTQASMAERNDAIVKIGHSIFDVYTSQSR
# [5] = target: T5, POM-1 (Metapseudomonas otitidis, UniProt E6Y3G9)
# T5 construct: gene pom1; full-length class B3 metallo-beta-lactamase from pDM1-blaPOM-1 in E. coli MC1000, lysate; gene from clinical isolate
# T5 sequence (E6Y3G9 entry or part of it): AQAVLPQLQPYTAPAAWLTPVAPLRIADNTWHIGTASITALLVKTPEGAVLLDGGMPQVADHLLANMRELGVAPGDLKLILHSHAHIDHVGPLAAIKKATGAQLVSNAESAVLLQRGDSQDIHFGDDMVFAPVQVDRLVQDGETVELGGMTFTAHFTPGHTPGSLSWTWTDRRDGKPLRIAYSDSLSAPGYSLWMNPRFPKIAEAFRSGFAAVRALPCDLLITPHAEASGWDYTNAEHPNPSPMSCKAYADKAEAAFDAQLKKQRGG
# [6] = target: T6, BEL-1 (Pseudomonas aeruginosa, UniProt Q3SAW3)
# T6 construct: gene bla(BEL1); full-length class A beta-lactamase from plasmid pDM1-blaBEL-1 in E. coli MC1000, sonicated lysate; gene from clinical isolate
# T6 sequence (Q3SAW3 entry or part of it): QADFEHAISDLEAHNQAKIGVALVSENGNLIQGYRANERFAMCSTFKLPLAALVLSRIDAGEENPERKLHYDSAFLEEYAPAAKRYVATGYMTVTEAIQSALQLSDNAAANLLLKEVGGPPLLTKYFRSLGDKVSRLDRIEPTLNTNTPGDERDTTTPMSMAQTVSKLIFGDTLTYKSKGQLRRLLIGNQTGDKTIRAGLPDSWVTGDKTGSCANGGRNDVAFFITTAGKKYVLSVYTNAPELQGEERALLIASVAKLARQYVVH
structure (smiles),measurement,setting,value
O=C(Cc1cccs1)N[C@@H]1C(=O)N2C(C(=O)O)=C(/C=C/c3ccc([N+](=O)[O-])cc3[N+](=O)[O-])CS[C@H]12 [nitrocefin],"nitrocefin hydrolysis, absorbance at 490 nm, sonicated lysate",[1],The hydrolytic activities of both tested β-lactamases are significantly reduced in the absence of DsbA
same,"nitrocefin hydrolysis, absorbance at 490 nm, sonicated lysate",[2],The hydrolysis of the chromogenic β-lactam nitrocefin by cysteine-containing β-lactamases is impaired
same,"nitrocefin hydrolysis, absorbance at 490 nm, sonicated lysate",[3],The hydrolysis of the chromogenic β-lactam nitrocefin by cysteine-containing β-lactamases is impaired
same,"nitrocefin hydrolysis, absorbance at 490 nm, sonicated lysate",[4],The hydrolysis of the chromogenic β-lactam nitrocefin by cysteine-containing β-lactamases is impaired
same,"nitrocefin hydrolysis, absorbance at 490 nm, sonicated lysate",[5],The hydrolytic activities of both tested β-lactamases are significantly reduced in the absence of DsbA
same,"nitrocefin hydrolysis, absorbance at 490 nm, sonicated lysate",[6],The hydrolysis of the chromogenic β-lactam nitrocefin by cysteine-containing β-lactamases is impaired
